According to patent publication US8618082B2, “Lupeol anti-tumor agent and uses thereof” (Wisconsin Alumni Research Foundation, priority 2004, dated 2013):

How the values were obtained:
human PSA = test: Serum PSA in athymic nude mice implanted with CWR22Rv1 cells; format: in vivo, mouse; conditions: Lupeol 1 mg/animal i.p. three times a week, vs control mice
Excerpt: FIG. 19 depicts effect of Lupeol on human PSA levels in serum of athymic nude mice implanted with CWR22Rv1 cells. Data is represented as mean±SD. * indicates p<0.05.
CW22Rv1 cells once implanted in a xenograft mouse model releases Prostate specific antigen (PSA) in host system and grows rapidly than LNCaP cells. PSA is a well known diagnostic biomarker of prostate cancer.

AsPC-1 cells = test: Viability of AsPC-1 cells, MTT assay; format: cell-based; conditions: Lupeol for 24-72 hours
Experimental: FIG. 20 depicts effect of Lupeol on viability of AsPC-1 cells. The cells were treated with specified concentrations of Lupeol for 24, 48 and 72 h, and cell viability was determined by MTT assay.

Akt = test: TPA-induced phosphorylation of Akt at Thr308 (western blot); format: in vivo, mouse
Experimental: FIG. 5. Inhibitory effect of Lupeol on TPA-induced activation of PI3K and phosphorylation of Akt in CD-1 mice: At different times after treatment, the animals were sacrificed, epidermal protein lysate was prepared, and PI3K and phosphorylated (Thr^308) Akt and total Akt protein expression were determined. The immunoblots shown here are representative of three independent experiments with similar results. The values above each lane indicate relative density of the band normalized to β-actin.
The animals were shaved on the dorsal side of the skin, divided into four groups and treated topically on the shaved area with either 0.4 ml vehicle (acetone), or TPA (3.2 nmol/0.4 ml acetone/animal, v/v), or Lupeol (1 or 2 mg/0.2 ml acetone/animal, w/v) followed 30 min later with TPA (3.2 nmol/0.2 ml acetone/animal). Animals were sacrificed at different times point i.e. 6, 12, 24 and 48 h post TPA treatment. […]
Epidermis from the whole skin was separated as described earlier (Katiyar et al., 1999) and was homogenized in ice-cold lysis buffer [50 mM Tris-HCl, 150 mM NaCl, 1 mM EGTA, 1 mM EDTA, 20 mM NaF, 100 mM Na3VO4, 0.5% NP-40, 1% Triton X-100, 1 mM PMSF (pH 7.4)] with freshly added protease inhibitor cocktail, Protease Inhibitor Cocktail Set III (Calbiochem, La Jolla, Calif., USA). […] The protein content in the lysates was measured by DC BioRad assay (BioRad Laboratories, Hercules, Calif.) as per the manufacturer's protocol.
For western blot analysis, 40 μg of the protein was resolved over 8-12% polyacrylamide gels and transferred to a nitrocellulose membrane. […] This was followed by incubation with anti-mouse or anti-rabbit secondary antibody horse-radish peroxidase (Amersham Life Sciences, Inc., USA) for 1 h and then washed several times and detected by chemiluminescence ECL kit, (Amersham Life Sciences, Inc., USA) and autoradiography using XAR-5 film obtained from Eastman Kodak Co. (Rochester, N.Y., USA). […]

[1] = system: Ras, PKCα, ODC, pAkt in AsPC-1 cells; test: Ras, PKCα, ODC, PI3K, pAkt expression in AsPC-1 cells; format: cell-based
Excerpt: FIG. 23 depicts effect of Lupeol treatment on the expression of Ras, PKCα, ODC, PI3K (P85), pAkt and total Akt, p38 and Erk1/2 proteins in AsPC-1 cells.

[2] = system: pro-caspases-8 and -9 in LNCaP cells; test: Pro-caspases-8 and -9 expression in LNCaP cells (western blot); format: cell-based, human
Experimental: FIG. 13 depicts effect of Lupeol treatment on protein expression of pro-caspases-8 and -9 in LNCaP cells. Cells were treated with only specified concentrations of Lupeol for 48 h, harvested and total cell lysates were prepared. Expression of pro-caspases-8 and -9 were determined by western blot analysis. Equal loading was confirmed by stripping immunoblots and reprobing them for β-actin. The immunoblots shown here are representative of three independent experiments with similar results.

With `C=C(C)[C@@H]1CC[C@]2(C)CC[C@]3(C)[C@H](CC[C@@H]4[C@@]5(C)CC[C@H](O)C(C)(C)[C@@H]5CC[C@]43C)[C@@H]12` [Lupeol, Lup-20(29)-en-3β-ol] the “serum PSA levels” value (human PSA) was “lower serum PSA levels”, the “cell death of ASPC-1 cells” value (AsPC-1 cells) was “highly significant dose dependent cell death” and the “TPA-induced phosphorylation of Akt at Thr308” value (Akt; pre-application of Lupeol prior to TPA) was “dose dependent inhibition”. For the same molecule, the “total epidermal Akt content” value (Akt; vs vehicle treated control) was “no change was observed”, the “expression of Ras protein” value [1] was “decrease” and the “phosphorylation of Akt” value [1] was “reduction in the phosphorylation of Akt”. The “protein expression of ODC” value [1] was “significant reduction”, the “protein expression of PKCa” value [1] was “significant reduction” and the “activation of Caspase-8 and 9 proteins” value [2] was “induces the activation”. The “expression of inactive (pro-) caspases-8 and -9” value ([2]; 48 h) was “causes disappearance of inactive caspases”.
